Results on 6 compounds are retold here after article PMC10343781, “Effect of Linker Elongation on the VGSC Affinity and Anticonvulsant Activity among 4-Alkyl-5-aryl-1,2,4-triazole-3-thione Derivatives” (Molecules, 2023).

Molecules are shown by their SMILES. Read-outs that look alike come from different tables or passages of the source.

Data set [1] has as its system motor coordination of mice. In words: Rotarod test (acute neurotoxicity). The conditions noted are these: i.p. (The rotarod test checks motor coordination on a turning rod.)
Experimental: Additionally, their possible acute neurotoxic effects were evaluated in the rotarod test.
Acute neurotoxicity of the compounds obtained after i.p. administration was tested in mice using the rotarod test according to the methodology described earlier [37].
The test system of data set [2] is maximal electroshock-induced tonic-clonic seizures in mice. In words: Maximal electroshock-induced seizure (MES) test. The data set is classed as in vivo. Conditions: Mus musculus, ip, read-out: ED50 ± SEM, anticonvulsant activity (MES test). On the procedure: As the sodium channel ligands are recognized as antiepileptic agents and the affinity of 3 and 4 against VGSCs was still in the beneficial range, the investigated 1,2,4-triazole derivatives were examined for their antiepileptic potential using in the vivo model of tonic–clonic seizures in mice. The protective effect of compounds 3 and 4 against maximal electroshock-induced seizures (MES) was evaluated in a wide range of doses (producing 0% to 100% protection) that enabled us to calculate corresponding ED50 values.
Anticonvulsant activity of the investigated compounds was determined according to the same procedure as described in [11, 15, 18]. Adult albino mice weighing 20–25 g were used in the experiment. The animals were randomly divided into groups of 8 mice and kept in colony cages with free access to water and food. Test compounds were administered intraperitoneally, suspended in a 1% solution of Tween 80 in distilled water in a volume of 5 mL/kg. Electroconvulsions were produced with alternating current (0.2 s stimulus duration; 500 V, 50 Hz, 25 mA constant current) delivered through ear clip electrodes by a type 221 rodent shock generator (Hugo Sachs Elektronik, Freiburg, Germany). Absence of tonic extension of the hind limb was assumed as the criterion of anticonvulsant activity. ED50 values were calculated using Litchfield and Wilcoxon’s log-probit method.
On the technique in general: The maximal electroshock test induces tonic seizures with an electrical stimulus.

Data set [3] has as its target Na+ channel (site 2), batrachotoxin-binding sites of VGSCs. The conditions noted are these: [3H]batrachotoxin displacement, rat cerebral cortex membranes, 8 concentrations 0.1-300 µM; read-out: Na+ Channel (Site 2) Affinity IC50 ± SEM.
For data set [4] the target is unchanged. The conditions noted are these: cited from earlier work.
Data set [5] relates to maximal electroshock-induced tonic-clonic seizures in mice. Details: method as in PMID 30594731. Conditions: cited from earlier work.

The compound `CCCCCCn1c(CCc2cccc(Cl)c2)n[nH]c1=S` [Compound 4, 5-[2-(3-Chlorophenyl)ethyl]-4-hexyl-2,4-dihydro-3H-1,2,4-triazole-3-thione] came in with a melting point of 84 to 86 °C. Further, the “PI (TD50/ED50)” value in data set [1] (pretreatment time 15 min) was 6.2. For the same compound, in data set [1] (pretreatment time 30 min), the “PI (TD50/ED50)” value is 5.3. The “PI (TD50/ED50)” value in data set [1] (pretreatment time 60 min) was 3.2. Besides, the “PI (TD50/ED50)” value in data set [1] (pretreatment time 120 min) was found to be 1.9. The “median toxic doses (TD50) in the rotarod test” value in data set [1] (pretreatment time not stated, highest value of the series) was at most 710.5 mg/kg. Also, in data set [2] (pretreatment time 15 min), the median effective dose (ED50) came out at 115 ± 7.6 mg/kg. In data set [2] (pretreatment time 30 min), the ED50 stood at 129 ± 21.1 mg/kg. In data set [2] (pretreatment time 60 min), the ED50 amounted to 215 ± 21.1 mg/kg. Moreover, in data set [2] (pretreatment time 120 min), the 50% effective dose (ED50) turned out to be 255 ± 22.5 mg/kg. Further, the concentration for half-maximal inhibition (IC50) in data set [3] amounted to 18.9 ± 0.3 µM.
As to `CCCCCCn1c(Cc2cccc(Cl)c2)n[nH]c1=S` [Compound 2, 5-(3-chlorobenzyl)-4-hexyl-1,2,4-triazole-3-thione], the IC50 in data set [4] (read-out: IC50 (blocked the VGSCs)) is 6.17 µM.
`CCCCn1c(Cc2cccc(Cl)c2)n[nH]c1=S` [Compound 1]: the IC50 in data set [4] (Figure 1, methylene-linker 3-chlorophenyl analogs, read-out: IC50 (VGSC affinity)) was 15.8 µM.
For `CCCC(CCC)C(=O)O` [Valproate], the “ED50 ± SEM, anticonvulsant activity (MES test)” value in data set [5] (pretreatment time 15 min) is 189.0 ± 17.3 mg/kg; in data set [5] (pretreatment time 30 min) it was 216.9 ± 9.4 mg/kg; in data set [5] (pretreatment time 60 min) it was 218.4 ± 18.9 mg/kg; in data set [5] (pretreatment time 120 min), 246.6 ± 21.4 mg/kg.
On to `CCCCn1c(CCc2cccc(Cl)c2)n[nH]c1=S` [Compound 3, 4-Butyl-5-[2-(3-chlorophenyl)ethyl]-2,4-dihydro-3H-1,2,4-triazole-3-thione], for which the melting point is 102 to 104 °C. In data set [1] (pretreatment time 15 min), the “PI (TD50/ED50)” value is 2.4. Also, the “PI (TD50/ED50)” value in data set [1] (pretreatment time 30 min) came out at 3.4. For the same compound, the “PI (TD50/ED50)” value in data set [1] (pretreatment time 60 min) was found to be 2.3. In addition, in data set [1] (pretreatment time 120 min), the “PI (TD50/ED50)” value is 1.7. The median effective dose (ED50) in data set [2] (pretreatment time 15 min) worked out at 139 ± 31.4 mg/kg. In data set [2] (pretreatment time 30 min), the ED50 was 96.6 ± 14.8 mg/kg. Besides, in data set [2] (pretreatment time 60 min), the median effective dose (ED50) came to 148 ± 17.1 mg/kg. In addition, the ED50 in data set [2] (pretreatment time 120 min) is 195 ± 18.9 mg/kg. For the same compound, in data set [3], the IC50 stood at 11.9 ± 0.4 µM.
For `COc1ccc(C(=O)O[C@H]2CC[C@@]3(C)[C@@H]4CC[C@H]5[C@]6(O)C[C@H](O)[C@@]7(O)[C@@H](CN8C[C@@H](C)CC[C@H]8[C@@]7(C)O)[C@]6(O)C[C@@]53O[C@]24O)cc1OC` [Veratridine, reference compound], the half-inhibitory concentration (IC50) in data set [3] is 17.8 ± 0.9 µM.

The term ED50 denotes the dose at which the effect has come halfway, by size or by number of responders. The term melting point denotes the temperature, or range, at which the solid turns liquid. Usually IC50 stands for the concentration that gives 50% inhibition.
